Source: patent publication US9315494B2, “Alkyl-amide-substituted pyridyl compounds useful as modulators of IL-12, IL-23 and/or IFNα responses” (Bristol-Myers Squibb Company, priority 2012, dated 2016)
Where two headings read alike, the source gives them in different places.

Tests used:
[1] = system: IFNα-stimulated STAT-dependent luciferase reporter in Kit225 T cells; assay: Kit225 T cell assay, IFNα stimulated STAT-dependent luciferase reporter; format: cell-based, human
Outline: (§1)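 Stimulus was either 200 U/mL human recombinant IFNα or 20 ng/mL IL-23, applied for 5-6 h to reporter-bearing Kit225 T cells grown in RPMI/10% FBS. Luciferase expression then quantified by luminescent assay.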

[2] = system: IL-23-stimulated STAT-dependent luciferase reporter in Kit225 T cells; assay: Kit225 T cell assay, IL-23 stimulated STAT-dependent luciferase reporter; format: cell-based, human
Outline: as §1

[3] = Kit225 T cells, 200 U/mL human recombinant IFNα, 5-6 hours, luciferase, read-out: IFNα (Kit225 T Cell Inhibition Data)
[4] = Kit225 T cells, 20 ng/mL human recombinant IL-23, 5-6 hours, luciferase, read-out: IL23 (Kit225 T Cell Inhibition Data)
[5] = Homo sapiens, KIT225, read-out: IFNα (Kit225 T Cell Inhibition Data)
[6] = Homo sapiens, KIT225, read-out: IL23 (Kit225 T Cell Inhibition Data)

Structure (SMILES)	IC50 [1, 3]	IC50 [2, 4]	IC50 [1, 5]	IC50 [2, 6]
CNC(=O)c1cnc(Nc2ccc3ccccc3n2)cc1NC1CCC(F)(F)CC1 [Example 292]	5600 nM	4720 nM		
CNC(=O)c1cnc(Nc2ccc3ccccc3n2)cc1NC1CCCC1(F)F (centres unmarked) [Example 294]			4900 nM	6350 nM
CCNC(=O)c1cnc(Nc2ccc(F)cn2)cc1Nc1ccccc1C(N)=O [Example 295]	3290 nM	7300 nM		
CCNC(=O)c1cnc(Nc2ccc(F)cn2)cc1Nc1ccccc1OC [Example 296]	2720 nM	7160 nM		
CNC(=O)c1cnc(Nc2ccccn2)cc1Nc1ccc(F)cc1S(C)(=O)=O [Example 299]	90 nM	270 nM		
CNC(=O)c1cnc(Nc2cc(C)nc(C)n2)cc1Nc1ccccc1S(C)(=O)=O [Example 300]	130 nM	280 nM		
CNC(=O)c1cnc(Nc2ccc(-n3cc(F)ccc3=O)cn2)cc1Nc1ccccc1S(C)(=O)=O [Example 301]	1460 nM	3160 nM		
CNC(=O)c1cnc(Nc2ccc(F)cn2)cc1Nc1ccc(C(=O)N2CC(F)(F)C2)cc1S(C)(=O)=O [Example 308]	1160 nM	1860 nM		
CNC(=O)c1cnc(Nc2ccc(F)cn2)cc1Nc1ccc(C#N)cc1S(C)(=O)=O [Example 310]			590 nM	1080 nM
CNC(=O)c1cnc(Nc2ccc(F)cn2)cc1Nc1ccc(-c2ncco2)cc1S(C)(=O)=O [Example 311]	160 nM	190 nM		
CNC(=O)c1cnc(Nc2ccc(F)cn2)cc1Nc1ccc(-c2nnco2)cc1S(C)(=O)=O [Example 312]	1020 nM	590 nM		
CNC(=O)c1cnc(Nc2ccc(F)cn2)cc1Nc1cccnc1OC [Example 313]	500 nM	1330 nM		
CNC(=O)c1cnc(Nc2cc(C)nc(C)n2)cc1Nc1cccnc1OC [Example 314]	80 nM	190 nM		
CNC(=O)c1cnc(Nc2ccc(F)cn2)cc1Nc1cccc(C(=O)NC)c1OC [Example 316]	100 nM	70 nM		
CNC(=O)c1cnc(Nc2cc(C)c(F)cn2)cc1Nc1cccc(C(=O)NC2CC2)c1OC [Example 318]	130 nM	130 nM		
CNC(=O)c1cnc(Nc2cc(C)c(F)cn2)cc1Nc1cccc(C(=O)NCCN2CCOCC2)c1OC [Example 322]	30 nM	70 nM		
CNC(=O)c1cnc(Nc2cc(C)c(F)cn2)cc1Nc1cccc(C(=O)NCC2CC2)c1OC [Example 324]	70 nM	220 nM		
CNC(=O)c1cnc(Nc2cc(C)c(F)cn2)cc1Nc1cccc(C(=O)Nc2ccccc2)c1OC [Example 328]	120 nM	600 nM		
CNC(=O)c1cnc(Nc2cc(C)c(F)cn2)cc1Nc1cccc(C(=O)NCC(O)c2ccccc2)c1OC (centres unmarked) [Example 331]	40 nM	60 nM		
CNC(=O)c1cnc(Nc2cc(C)c(F)cn2)cc1Nc1cccc(C(=O)NCCC(C)(C)O)c1OC [Example 333]	90 nM	120 nM		
CNC(=O)c1cnc(Nc2cc(C)c(F)cn2)cc1Nc1cccc(C(=O)NCCc2ccccc2)c1OC [Example 337]	80 nM	110 nM		

Structure (SMILES)	IC50 [1, 3]	IC50 [2, 4]	IC50 [1, 5]	IC50 [2, 6]
CNC(=O)c1cnc(Nc2cc(C)c(F)cn2)cc1Nc1cccc(C(=O)NCCC(C)C)c1OC [Example 338]	110 nM	400 nM		
CCCNC(=O)c1cccc(Nc2cc(Nc3cc(C)c(F)cn3)ncc2C(=O)NC)c1OC [Example 339]	30 nM	50 nM		
CNC(=O)c1cnc(Nc2cc(C)c(F)cn2)cc1Nc1cccc(C(=O)NCC(C)(C)C)c1OC [Example 340]	120 nM	220 nM		
CNC(=O)c1cnc(Nc2cc(C)c(F)cn2)cc1Nc1cccc(C(=O)NCC2(O)CCC2)c1OC [Example 342]	130 nM	150 nM		
CNC(=O)c1cnc(Nc2cc(C)c(F)cn2)cc1Nc1cccc(C(=O)NCC2(C)COC2)c1OC [Example 343]	140 nM	160 nM		
CNC(=O)c1cnc(Nc2cc(C)c(F)cn2)cc1Nc1cccc(C(=O)NCC(F)(F)F)c1OC [Example 346]	20 nM	40 nM		
CNC(=O)c1cnc(Nc2cc(C)c(F)cn2)cc1Nc1cccc(C(=O)NCC(C)(C)O)c1OC [Example 347]	70 nM	190 nM		
CNC(=O)c1cnc(Nc2cc(C)c(F)cn2)cc1Nc1cccc(C(=O)NCCCO)c1OC [Example 348]	180 nM	430 nM		
CNC(=O)c1cnc(Nc2cc(C)c(F)cn2)cc1Nc1cccc(C(=O)NCCCOC)c1OC [Example 349]	60 nM	60 nM		
CNC(=O)c1cnc(Nc2cc(C)c(F)cn2)cc1Nc1cccc(C(=O)NCC(C)C)c1OC [Example 350]	80 nM	80 nM		
CNC(=O)c1cnc(Nc2cc(C)c(F)cn2)cc1Nc1cccc(C(=O)NCCOC)c1OC [Example 352]	20 nM	20 nM		
CNC(=O)c1cnc(Nc2cc(C)c(F)cn2)cc1Nc1cccc(C(=O)NCC2(C#N)CC2)c1OC [Example 354]	130 nM	150 nM		
CNC(=O)c1cnc(Nc2cc(C)c(F)cn2)cc1Nc1cccc(-c2nnc(C)o2)c1OC [Example 359]	10 nM	20 nM		
CNC(=O)c1cnc(Nc2cc(C)c(F)cn2)cc1Nc1cccc(-c2nnc[nH]2)c1OC [Example 360]	7.74 nM	30 nM		
CNC(=O)c1cnc(Nc2cc(C)nc(C)n2)cc1Nc1cccc(-c2nnc(C)o2)c1OC [Example 361]	20 nM	60 nM		
CNC(=O)c1cnc(Nc2cc(C)nc(C)n2)cc1Nc1cccc(-c2nnc[nH]2)c1OC [Example 362]	10 nM	20 nM		
CNC(=O)c1cnc(Nc2cc(C)c(F)cn2)cc1Nc1cccc(-c2nnc(C)[nH]2)c1OC [Example 364, 6-((5-fluoro-4-methylpyridin-2-yl)amino)-4-((2-methoxy-3-(5-methyl-4H-1,2,4-triazol-3-yl)phenyl)amino)-N-methylnicotinamide]	10 nM	10 nM		
CNC(=O)c1cnc(Nc2cc(C)nc(C)n2)cc1Nc1cccc(-c2nc(C)nn2C)c1OC [Example 367]	30 nM	20 nM		
CNC(=O)c1cnc(Nc2cc(C)nc(C)n2)cc1Nc1cccc(-c2nc(C)n(CCF)n2)c1OC [Example 368]	10 nM	9.45 nM		
CNC(=O)c1cnc(Nc2cc(C)nc(C)n2)cc1Nc1cccc(-c2nc(C)n(CC(F)(F)F)n2)c1OC [Example 370]			30 nM	30 nM

Now from value to compound, other results behind:

IC50 [1, 3]	IC50 [2, 4]	Structure (SMILES)	IC50 [1, 5]	IC50 [2, 6]
11400 nM	4780 nM	CNC(=O)c1cnc(Nc2ccc3ccccc3n2)cc1NC1CCC(F)(F)CC1O (centres unmarked) [Example 293]		
600 nM	250 nM	CCNC(=O)c1cnc(Nc2ccc(F)cn2)cc1Nc1ccccc1S(C)(=O)=O [Example 297]		
2650 nM	2340 nM	CNC(=O)c1cnc(Nc2ccc(F)cn2)cc1Nc1ccc(C(N)=O)cc1S(C)(=O)=O [Example 303]		
570 nM	1240 nM	CNC(=O)c1ccc(Nc2cc(Nc3ccc(F)cn3)ncc2C(=O)NC)c(S(C)(=O)=O)c1 [Example 304]		
3110 nM	2650 nM	CNC(=O)c1cnc(Nc2ccc(F)cn2)cc1Nc1ccc(C(=O)N2CCOCC2)cc1S(C)(=O)=O [Example 305]		
560 nM	2530 nM	CNC(=O)c1cnc(Nc2ccc(F)cn2)cc1Nc1ccc(C(=O)N(C)C)cc1S(C)(=O)=O [Example 306]		
1540 nM	3740 nM	CNC(=O)c1cnc(Nc2ccc(F)cn2)cc1Nc1ccc(C(=O)NC2CC2F)cc1S(C)(=O)=O (centres unmarked) [Example 307]		
630 nM	1920 nM	CNC(=O)c1cnc(Nc2ccc(F)cn2)cc1Nc1ccc(C(=O)NC2CC2)cc1S(C)(=O)=O [Example 309]		
110 nM	210 nM	CNC(=O)c1cnc(Nc2ccc(F)cn2)cc1Nc1cccc(C(=O)NC2CC2)c1OC [Example 317]		
10 nM	90 nM	CNC(=O)c1cnc(Nc2cc(C)c(F)cn2)cc1Nc1cccc(C(N)=O)c1OC [Example 319]		
30 nM	50 nM	CNC(=O)c1cnc(Nc2cc(C)c(F)cn2)cc1Nc1cccc(C(=O)NC)c1OC [Example 320]		
130 nM	380 nM	CNC(=O)c1cnc(Nc2cc(C)c(F)cn2)cc1Nc1cccc(C(=O)NCC2CCC2)c1OC [Example 332]		
440 nM	400 nM	CNC(=O)c1cnc(Nc2cc(C)c(F)cn2)cc1Nc1cccc(C(=O)NCCO)c1OC [Example 336]		
20 nM	60 nM	CNC(=O)c1cnc(Nc2cc(C)c(F)cn2)cc1Nc1cccc(C(=O)NCc2ccccc2)c1OC [Example 351]		
160 nM	250 nM	CNC(=O)c1cnc(Nc2cc(C)c(F)cn2)cc1Nc1cccc(C(=O)NCc2c[nH]c3ccccc23)c1OC [Example 353]		
30 nM	30 nM	CCNC(=O)c1cccc(Nc2cc(Nc3cc(C)c(F)cn3)ncc2C(=O)NC)c1OC [Example 355]		
30 nM	120 nM	CNC(=O)c1cnc(Nc2ccc(F)cn2)cc1Nc1cccc(C#N)c1OC [Example 357]		
9.22 nM	20 nM	CNC(=O)c1cnc(Nc2cc(C)nc(C)n2)cc1Nc1cccc(-c2nc(C)n(C)n2)c1OC [Example 366]		
3.99 nM	4.89 nM	CNC(=O)c1cnc(Nc2cc(C)c(F)cn2)cc1Nc1cccc(-c2ncn(C)n2)c1OC [Example 371]		
10 nM	10 nM	CNC(=O)c1cnc(Nc2cc(C)nc(C)n2)cc1Nc1cccc(-c2ncn(C)n2)c1OC [Example 372]		
